What was measured:
[1] = biological target: Human Arginase 2 (Homo sapiens (Human), UniProt P78540); assay: Human Arginase 2 enzyme inhibition (thioarginine/DTNB absorbance assay); format: biochemical; conditions: recombinant enzyme 5 nM, 0.5 mM thioarginine premix, 60 min
Method: (§1) The thiol group was detected with Ellman's reagent, 5,5′-dithiobis(2-nitrobenzoic acid) (DTNB). DTNB reacts with the thiol to give the mixed disulfide and 2-nitro-5-thiobenzoic acid (TNB) which is quantified by the absorbance of the anion (TNB^2−) at 412 nm.
(§2) The assays were run in clear 384 well plates (Greiner cat no: 781101). […] Two pre-mixes were prepared from reagents thawed immediately before addition to assay plates. Pre-mix one comprised human Arginase 1 or human Arginase 2, at a final concentration of 5 nM and 0.5 mM DTNB in assay buffer, 45 mM HEPES pH7.5, brij 35, 0.045% (w/v) and 100 μM MnCl2. Pre-mix two comprised freshly thawed 0.5 mM thioarginine in assay buffer.
(§3) Assay plates were centrifuged prior to reading absorbance at 412 nm in a Pherastar multi-mode plate reader to collect data at time point 0 (T0). The plates were incubated at room temperature for 60 min prior to reading again to collect data at time point 1 (T1). Data is derived by subtracting the A412 signal measured at T0 (time point 0) from that measured at T1 (time point 1). The data was transformed to % effect using the equation: Compound % effect=100*[(X−min)/(max−min)], where X represents the normalized value for the compound based on the Min (vehicle) and Max (reference compound) inhibition control.

[2] = biological target: Human Arginase 1 (Homo sapiens (Human), UniProt P05089); assay: Human Arginase 1 enzyme inhibition (thioarginine/DTNB absorbance assay); format: biochemical; conditions: recombinant enzyme 5 nM, 0.5 mM thioarginine premix, 60 min
Method: as §1, §2, §3

[3] = Bioavailability / pharmacokinetic study in male rats (IV and PO); format: in vivo, rat; conditions: plasma, pro-drug itself, observed when dosed as pro-drug, male rat; for clearance / Vd: IV 2 mg/kg; for Vd: read-out: Vdss; for AUC / Cmax / Tmax: PO 5 mg/kg; for bioavailability: PO 5 mg/kg vs IV 2 mg/kg
Method: Example 8 was formulated in 0.9% w/v saline pH 4 (adjusted with 1M HCl) for IV dosing. The formulation was dosed at 2 mg/kg by femoral catheter to two male rats each (170-250 g). Jugular vein catheter serial blood samples were taken at 0.033, 0.083, 0.167, 0.5, 1, 2, 4, 8, and 24 hrs post-dose. For PO dosing, Example 8 was formulated in deionized water pH 4 (adjusted with 1M HCl) and dosed at 5 mg/kg by oral gavage to two male rats each (170-250 g). Serial blood samples were taken by jugular vein catheter at 0.25, 0.5, 1, 1.5, 2, 3, 4, 8, and 24 hrs post dose. Plasma samples were generated from blood using low speed centrifugation. […] The samples and standards were extracted by precipitation with two volumes of acetonitrile followed by centrifugation. […] Where appropriate, measured and not nominal doses were used to calculate bioavalability.

Chain of Human Arginase 1 (P05089 whole entry): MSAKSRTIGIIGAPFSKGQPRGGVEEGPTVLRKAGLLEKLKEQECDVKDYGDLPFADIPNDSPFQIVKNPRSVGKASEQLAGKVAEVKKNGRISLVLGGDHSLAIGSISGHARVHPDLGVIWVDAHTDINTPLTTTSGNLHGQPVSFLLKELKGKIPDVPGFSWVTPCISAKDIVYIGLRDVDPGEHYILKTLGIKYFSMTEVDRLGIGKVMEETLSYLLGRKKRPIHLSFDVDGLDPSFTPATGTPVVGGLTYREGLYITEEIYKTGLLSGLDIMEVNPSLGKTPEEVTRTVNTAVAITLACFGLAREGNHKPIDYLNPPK
Chain of Human Arginase 2 (P78540 23-354): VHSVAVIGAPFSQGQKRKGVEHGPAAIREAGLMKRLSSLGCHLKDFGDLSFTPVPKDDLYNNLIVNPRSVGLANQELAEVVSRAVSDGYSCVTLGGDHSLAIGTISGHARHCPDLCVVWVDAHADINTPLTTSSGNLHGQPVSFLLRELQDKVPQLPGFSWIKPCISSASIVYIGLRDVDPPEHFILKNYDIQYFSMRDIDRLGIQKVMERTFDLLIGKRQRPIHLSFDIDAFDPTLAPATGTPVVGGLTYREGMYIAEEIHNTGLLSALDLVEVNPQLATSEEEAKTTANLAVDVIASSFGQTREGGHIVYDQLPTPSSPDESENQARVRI

SMILES | IC50 [1] | IC50 [2] | clearance [3] | Vd [3] | AUC [3] | Cmax [3] | Tmax [3] | bioavailability [3]
CC(C)[C@@H](N)C(=O)N[C@H]1CN[C@@](CCCCB(O)O)(C(=O)O)C1 [Example 10, (2R,4R)-4-((R)-2-amino-3-methylbutanamido)-2-(4-boronobutyl)pyrrolidine-2-carboxylic acid] | 4770 nM | 3770 nM | – | – | – | – | – | –
CC(C)(O)[C@H](N)C(=O)N[C@H]1CN[C@@](CCCCB(O)O)(C(=O)O)C1 [Example 20, (2R,4R)-4-[[(2S)-2-amino-3-hydroxy-3-methyl-butanoyl]amino]-2-(4-boronobutyl)pyrrolidine-2-carboxylic acid] | 520 nM | 340 nM | 8.9 mL/min/kg | 0.29 L/kg | 6.9 µM·h | 1800 nM | 60 min | 25.5%
COC[C@H](N)C(=O)N[C@H]1CN[C@@](CCCCB(O)O)(C(=O)O)C1 [Example 18, (2R,4R)-4-((S)-2-amino-3-methoxypropanamido)-2-(4-boronobutyl)pyrrolidine-2-carboxylic acid] | 380 nM | 320 nM | 317 mL/min/kg | 0.64 L/kg | – | – | – | –
NCC(=O)N[C@H]1CN[C@@](CCCCB(O)O)(C(=O)O)C1 [Example 13, (2R,4R)-4-(2-aminoacetamido)-2-(4-boronobutyl)pyrrolidine-2-carboxylic acid] | 630 nM | 430 nM | 17.9 mL/min/kg | 0.2 L/kg | 0.62 µM·h | 460 nM | 30 min | 3.8%
O=C(O)[C@@]1(CCCCB(O)O)C[C@H](O)CN1 [Example 2, (2R,4S)-2-(4-boronobutyl)-4-hydroxypyrrolidine-2-carboxylic acid] | 21400 nM | 26600 nM | – | – | – | – | – | –
C[C@H](N)C(=O)N[C@H]1CN[C@@](CCCCB(O)O)(C(=O)O)C1 [Example 8, (2R,4R)-4-((S)-2-aminopropanamido)-2-(4-boronobutyl)pyrrolidine-2-carboxylic acid] | 560 nM | 610 nM | – | – | – | – | – | –
CC[C@H](C)[C@H](N)C(=O)N[C@H]1CN[C@@](CCCCB(O)O)(C(=O)O)C1 [Example 15, (2R,4R)-4-((2S,3S)-2-amino-3-methylpentanamido)-2-(4-boronobutyl)pyrrolidine-2-carboxylic acid] | 260 nM | 310 nM | 104 mL/min/kg | 0.46 L/kg | – | – | – | –
O=C(O)[C@@]1(CCCCB(O)O)C[C@@H](O)CN1 [Example 3, (2R,4R)-2-(4-boronobutyl)-4-hydroxypyrrolidine-2-carboxylic acid] | 10400 nM | 4550 nM | – | – | – | – | – | –
CC[C@H](N)C(=O)N[C@H]1CN[C@@](CCCCB(O)O)(C(=O)O)C1 [Example 14, (2R,4R)-4-((S)-2-aminobutanamido)-2-(4-boronobutyl)pyrrolidine-2-carboxylic acid] | 310 nM | 260 nM | – | – | – | – | – | –
CC(C)[C@H](N)C(=O)N[C@H]1CN[C@@](CCCCB(O)O)(C(=O)O)C1 [Example 9, (2R,4R)-4-((S)-2-amino-3-methylbutanamido)-2-(4-boronobutyl)pyrrolidine-2-carboxylic acid] | 330 nM | 320 nM | 33.3 mL/min/kg | 0.2 L/kg | 0.24 µM·h | 600 nM | 15 min | 3.2%
CC(C)[C@H](N)C(=O)N(C)[C@H]1CN[C@](CCCCB(O)O)(C(=O)O)C1 [Example 30, (2S,4R)-4-[[(2S)-2-amino-3-methyl-butanoyl]-methyl-amino]-2-(4-boronobutyl)pyrrolidine-2-carboxylic acid] | 2420 nM | 1350 nM | – | – | – | – | – | –
CC(C)C[C@H](N)C(=O)N[C@H]1CN[C@@](CCCCB(O)O)(C(=O)O)C1 [Example 16, (2R,4R)-4-((S)-2-amino-4-methylpentanamido)-2-(4-boronobutyl)pyrrolidine-2-carboxylic acid] | 310 nM | 310 nM | 585 mL/min/kg | 7.41 L/kg | – | – | – | –
CN[C@H]1CN[C@@](CCCCB(O)O)(C(=O)O)C1 [Example 23, (2R,4R)-2-(4-boronobutyl)-4-(methylamino)pyrrolidine-2-carboxylic acid] | 2120 nM | 1140 nM | – | – | – | – | – | –
CC(C)[C@H](N)C(=O)N(C)[C@H]1CN[C@@](CCCCB(O)O)(C(=O)O)C1 [Example 29, (2R,4R)-4-[[(2S)-2-amino-3-methyl-butanoyl]-methyl-amino]-2-(4-boronobutyl)pyrrolidine-2-carboxylic acid] | 9280 nM | 5270 nM | – | – | – | – | – | –
NCCN[C@H]1CN[C@](CCCCB(O)O)(C(=O)O)C1 [Example 28, (2S,4R)-4-(2-aminoethylamino)-2-(4-boronobutyl)pyrrolidine-2-carboxylic acid] | 190 nM | 90 nM | – | – | – | – | – | –
CN[C@H]1CN[C@](CCCCB(O)O)(C(=O)O)C1 [Example 24, (2S,4R)-2-(4-boronobutyl)-4-(methylamino)pyrrolidine-2-carboxylic acid] | 10 nM | < 3 nM | – | – | – | – | – | –
O=C(O)[C@@]1(CCCCB(O)O)CCCN1 [Example 1, (R)-2-(4-boronobutyl)pyrrolidine-2-carboxylic acid] | 23000 nM | 14700 nM | – | – | – | – | – | –
CN(C)[C@H]1CN[C@@](CCCCB(O)O)(C(=O)O)C1 [Example 25, (2R,4R)-2-(4-boronobutyl)-4-(dimethylamino)pyrrolidine-2-carboxylic acid] | 24600 nM | 10800 nM | – | – | – | – | – | –
CN(C)[C@H]1CN[C@](CCCCB(O)O)(C(=O)O)C1 [Example 26, (2S,4R)-2-(4-boronobutyl)-4-(dimethylamino)pyrrolidine-2-carboxylic acid] | 150 nM | 60 nM | – | – | – | – | – | –
CC(C)[C@](C)(N)C(=O)N[C@H]1CN[C@@](CCCCB(O)O)(C(=O)O)C1 [Example 21, (2R,4R)-4-[[(2S)-2-amino-2,3-dimethyl-butanoyl]amino]-2-(4-boronobutyl)pyrrolidine-2-carboxylic acid] | 680 nM | 480 nM | – | – | – | – | – | –
NCCN[C@H]1CN[C@@](CCCCB(O)O)(C(=O)O)C1 [Example 27, (2R,4R)-4-(2-aminoethylamino)-2-(4-boronobutyl)pyrrolidine-2-carboxylic acid] | 3320 nM | 1430 nM | – | – | – | – | – | –
O=C(N[C@H]1CN[C@@](CCCCB(O)O)(C(=O)O)C1)[C@@H]1CCCN1 [Example 12, (2R,4R)-2-(4-boronobutyl)-4-((S)-pyrrolidine-2-carboxamido)pyrrolidine-2-carboxylic acid] | 850 nM | 700 nM | – | – | – | – | – | –
NC[C@H](N)C(=O)N[C@H]1CN[C@@](CCCCB(O)O)(C(=O)O)C1 [Example 22, (2R,4R)-2-(4-boronobutyl)-4-[[(2S)-2,3-diaminopropanoyl]amino]pyrrolidine-2-carboxylic acid] | 1320 nM | 930 nM | – | – | – | – | – | –
CC(C)(C)[C@H](N)C(=O)N[C@H]1CN[C@@](CCCCB(O)O)(C(=O)O)C1 [Example 11, (2R,4R)-4-((S)-2-amino-3,3-dimethylbutanamido)-2-(4-boronobutyl)pyrrolidine-2-carboxylic acid] | 200 nM | 210 nM | – | – | – | – | – | –
N[C@@H](CO)C(=O)N[C@H]1CN[C@@](CCCCB(O)O)(C(=O)O)C1 [Example 17, (2R,4R)-4-((S)-2-amino-3-hydroxypropanamido)-2-(4-boronobutyl)pyrrolidine-2-carboxylic acid] | 230 nM | 200 nM | 40.5 mL/min/kg | 0.36 L/kg | 0.38 µM·h | 430 nM | 22.8 min | 5.8%

Source: patent US11420984B2, “Arginase inhibitors and methods of use thereof” (AstraZeneca AB, priority 2018, dated 2022)
